Data set [1] deals with MARV (full-length glycoprotein, VSV pseudotype). The data set can be described thus: microbe, parasite or virus in culture. Particulars: for EC50: Vesicular stomatitis virus, Vero, 24 h, read-out: EC50 Pseudotype Assays MARV. It counts as cell-based, Marburg marburgvirus.
Data set [2] is described as follows: in vitro. Particulars: African green monkey, Cytotox CC50.
For data set [3], the system named is SUDV (glycoprotein, VSV pseudotype). The data set can be described thus: microbe, parasite or virus in culture. It counts as cell-based, Sudan ebolavirus. Conditions: Vesicular stomatitis virus, Vero, 24 h, read-out: EC50 Pseudotype Assays SUDV.
Data set [4] concerns EBOV (mucin-deleted glycoprotein, VSV pseudotype). Kind of data set: microbe, parasite or virus in culture. It counts as cell-based, Zaire ebolavirus. Conditions: Zaire ebolavirus, Vero, 24 h, read-out: EC50 Pseudotype Assays EBOV.
Data set [5] has as its system BDBV (mucin-deleted glycoprotein, VSV pseudotype). The data set can be described thus: microbe, parasite or virus in culture. It counts as cell-based, Bundibugyo ebolavirus. Particulars: Vesicular stomatitis virus, Vero, 24 h, read-out: EC50 Pseudotype Assays BDBV.

Bounds are passed on as bounds.

By EC50 is commonly meant the concentration needed to bring the measured effect to its halfway point. In general, CC50 refers to the concentration that lowers cell viability or growth by half. Low readings indicate greater toxicity to the cells, high ones lower toxicity to the cells. For the compound `CC12CC3CC(C(=O)NC4CC5CNC4C5)(C1)CC(c1ccccc1)(C3)C2` (racemic) [Example A30], the EC50 amounted to 5000 nM in data set [1], 800 nM in data set [3], 250 nM in data set [4] and 700 nM in data set [5]. For the same compound, it took 30 µM to reach half-maximal cytotoxicity in data set [2] (CC50).

As to `CC12CC3CC(C(=O)NC4CC5CC4CN5)(C1)CC(c1ccccc1)(C3)C2` (racemic) [Example A31], the EC50 in data set [1], in data set [3], in data set [4] and in data set [5] was over 1000 nM in each case. In data set [2], this compound displayed a 50% cytotoxic concentration (CC50) of 26 µM.

`CC1CC(N)CCN1C(=O)C12CC3CC(C)(C1)CC(c1ccccc1)(C3)C2` (racemic) [Example A40] returned a CC50 in data set [2] of 24.6 µM. Further, the EC50 in data set [3] was 450 nM; in data set [4], 69 nM; in data set [5], 165 nM.

As to `CC12CC3CC(C(=O)N4CCC5(CC5N)C4)(C1)CC(c1ccccc1)(C3)C2` (racemic) [Example A41], the CC50 in data set [2] is 27.7 µM. Moreover, the EC50 came out at 680 nM in data set [3], 153 nM in data set [4] and 209 nM in data set [5].

Regarding `CC12CC3CC(C(=O)N4C5CCC4CC(N)C5)(C1)CC(c1ccccc1)(C3)C2` (racemic) [Example A42], the 50% cytotoxic concentration (CC50) in data set [2] worked out at 11.8 µM. Further, the half-maximal effective concentration (EC50) in data set [3] stood at 460 nM; in data set [4], 33 nM; in data set [5], 190 nM.

Consider `CC12CC3CC(C(=O)N4CCCC(N)CC4)(C1)CC(c1ccccc1)(C3)C2` (racemic) [Example A43], for which the cytotoxic concentration (CC50) in data set [2] was 13 µM. For the same compound, the EC50 in data set [3] worked out at 370 nM; in data set [4], 147 nM; in data set [5], 126 nM.

In data set [2], `CC12CC3CC(C(=O)N4CC5(CCNCC5)C4)(C1)CC(c1ccccc1)(C3)C2` (racemic) [Example A44] returned a half-maximal cytotoxic concentration (CC50) of 27.2 µM. Further, the concentration for a half-maximal effect (EC50) in data set [3] stood at 245 nM; in data set [4] it was 45 nM; in data set [5], 75 nM.

Take `CC12CC3CC(C(=O)N4C[C@H]5CNC[C@H]5C4)(C1)CC(c1ccccc1)(C3)C2` (mixture of isomers) [Example A45]: the half-maximal cytotoxic concentration (CC50) in data set [2] is 30.6 µM. The EC50 came to 330 nM in data set [3], 205 nM in data set [4] and 301 nM in data set [5].

Consider `CC12CC3CC(C(=O)N4CCC(N)(CO)CC4)(C1)CC(c1ccccc1)(C3)C2` (racemic) [Example A46], for which the cytotoxic concentration (CC50) in data set [2] is 12.2 µM. Further, the EC50 in data set [3] is 90 nM; in data set [4], 41 nM; in data set [5], 48 nM.

In data set [2], `CC12CC3CC(C(=O)N4CC5(CNC5)C4)(C1)CC(c1ccccc1)(C3)C2` (racemic) [Example A47] had a CC50 of 42.3 µM. Also, the figures for the half-maximal effective concentration (EC50) in data set [3], in data set [4] and in data set [5] were 335 nM, 65 nM and 238 nM, respectively.

On to `CC12CC3CC(C(=O)N4CCC5(CCNCC5)CC4)(C1)CC(c1ccccc1)(C3)C2` (racemic) [Example A50], for which, in data set [2], half-maximal cytotoxicity (CC50) was put at 8.78 µM. Besides, the concentration giving a half-maximal response (EC50) in data set [3] was determined as 160 nM; in data set [4], 61 nM; in data set [5] it was 90 nM.

The compound `CC12CC3CC(C(=O)N4CC[C@H](N)C4)(C1)CC(c1ccccc1)(C3)C2` (mixture of isomers) [Example A54] showed a cytotoxic concentration (CC50) in data set [2] of 11.3 µM. In addition, the 50% effective concentration (EC50) in data set [3] amounted to 350 nM; in data set [4], 120 nM; in data set [5], 200 nM.

`CC12CC3CC(C(=O)N4CC[C@@H](N)C4)(C1)CC(c1ccccc1)(C3)C2` (mixture of isomers) [Example A55]: in data set [2], the CC50 came to 12.6 µM. Further, the EC50 was found to be 370 nM in data set [3], 140 nM in data set [4] and 160 nM in data set [5].

Take `CC12CC3CC(C(=O)N4CCC[C@H](N)C4)(C1)CC(c1ccccc1)(C3)C2` (mixture of isomers) [Example A56]: the midpoint of cytotoxicity in data set [2], the CC50, lay at 9.09 µM. Further, the results for the EC50 in data set [3], in data set [4] and in data set [5] were 60 nM, 107 nM and 75 nM, respectively.

Turning to `CC12CC3CC(C(=O)N4CCC[C@@H](N)C4)(C1)CC(c1ccccc1)(C3)C2` (mixture of isomers) [Example A57], the cytotoxic concentration (CC50) in data set [2] was 7.88 µM. Moreover, the figures for the EC50 in data set [3], in data set [4] and in data set [5] were 220 nM, 55 nM and 170 nM, respectively.

For `CC12CC3CC(C(=O)N[C@@H]4CCCN5CCC[C@H]45)(C1)CC(c1ccccc1)(C3)C2` (mixture of isomers) [Example A59], the half-maximal cytotoxic concentration (CC50) in data set [2] worked out at 12.7 µM. Besides, the concentration for a half-maximal effect (EC50) came to 400 nM in data set [3], 26 nM in data set [4] and 257 nM in data set [5].

`CC12CC3CC(C(=O)NC45CCN(CC4)CC5)(C1)CC(c1ccccc1)(C3)C2` (racemic) [Example A60] displayed a CC50 in data set [2] of 23.1 µM. Moreover, the EC50 in data set [3] is 330 nM; in data set [4] it was 35 nM; in data set [5], 120 nM.

`CCC12CC3CC(CNC4CCNCC4(C)C)(C1)CC(c1ccccc1)(C3)C2` (stereo not drawn) [Example A61]: the midpoint of cytotoxicity in data set [2], the CC50, lay at 1.24 µM. The 50% effective concentration (EC50) in data set [3] was determined as 660 nM; in data set [4], 800 nM; in data set [5], 750 nM.

For the compound `CCC12CC3CC(CNC4CCNCC4)(C1)CC(c1ccccc1)(C3)C2` (stereo not drawn) [Example A62], in data set [2], the cytotoxic concentration (CC50) was found to be 1.62 µM. Also, the 50% effective concentration (EC50) was found to be 540 nM in data set [3], 900 nM in data set [4] and 500 nM in data set [5].

In data set [2], `CCC12CC3CC(CN[C@H]4CCN[C@@H](C)C4)(C1)CC(c1ccccc1)(C3)C2` (stereo partly drawn) [Example A63] showed a CC50 of 1.47 µM. Further, the concentration giving a half-maximal response (EC50) in data set [3] is 740 nM; in data set [4], 725 nM; in data set [5], 435 nM.

Take `CCC12CC3CC(CN[C@H]4CC[C@H](CN)CC4)(C1)CC(c1ccccc1)(C3)C2` (stereo partly drawn) [Example A64]: the half-maximal cytotoxic concentration (CC50) in data set [2] amounted to 1.24 µM. In addition, the EC50 in data set [3] was 530 nM; in data set [4], 610 nM; in data set [5], 300 nM.

`CC12CC3CC(CN[C@H]4CC[C@H](N)CC4)(C1)CC(c1ccccc1)(C3)C2` (stereo partly drawn) [Example A65]: the half-maximal effective concentration (EC50) in data set [1] is 890 nM; in data set [3], 180 nM; in data set [4], 280 nM; in data set [5] it was 175 nM. In data set [2], this compound displayed a 50% cytotoxic concentration (CC50) of 1.62 µM.

`CCC12CC3CC(CN[C@H]4CC[C@H](N)CC4)(C1)CC(c1ccccc1)(C3)C2` (stereo partly drawn) [Example A66]: the half-maximal effective concentration (EC50) in data set [1] worked out at 970 nM; in data set [3], 490 nM; in data set [4] it was 220 nM; in data set [5], 199 nM. Also, the CC50 in data set [2] amounted to 4.06 µM.

With `NC1CCN(CC23CC4CC(C2)CC(c2ccccc2)(C4)C3)CC1` [Example A68], the EC50 is over 3000 nM in data set [1], 400 nM in data set [3], 600 nM in data set [4] and 280 nM in data set [5]. In data set [2], the half-maximal cytotoxic concentration (CC50) was 7.47 µM.

Turning to `C[C@]12CC3CC(C(=O)N4CC5(CC(N)C5)C4)(C1)C[C@@](c1ccccc1)(C3)C2` [Example B11], the CC50 in data set [2] stood at 23.6 µM. Also, the EC50 in data set [3] worked out at 260 nM; in data set [4], 64 nM; in data set [5] it was 104 nM.

In turn, `CC1(C)CN(C(=O)C23CC4C[C@@](C)(C2)C[C@](c2ccccc2)(C4)C3)CC[C@H]1N` [Example B12] registered a CC50 in data set [2] of 13.3 µM. Moreover, the half-maximal effective concentration (EC50) in data set [3] stood at 200 nM; in data set [4], 95 nM; in data set [5] it was 105 nM.

In turn, `C[C@@H]1C[C@H](NC(=O)C23CC4C[C@@](C)(C2)C[C@](c2ccccc2)(C4)C3)CCN1` [Example B14] had a CC50 in data set [2] of 14.4 µM. In addition, the values for the EC50 in data set [3], in data set [4] and in data set [5] were 730 nM, 25 nM and 250 nM, respectively.

On to `CC[C@]12CC3CC(C(=O)N[C@H]4CC[C@H](N)CC4)(C1)C[C@@](c1ccccc1)(C3)C2` [Example B16], for which the EC50 in data set [1] was 3020 nM; in data set [3], 180 nM; in data set [4], 16 nM; in data set [5], 57 nM.

For the compound `C[C@]12CC3CC(CN4CCC(N)CC4)(C1)C[C@@](c1ccccc1)(C3)C2` [Example B69], the EC50 in data set [1] worked out at 930 nM; in data set [3], 710 nM; in data set [4] it was 429 nM; in data set [5] it was 279 nM. For the same compound, the midpoint of cytotoxicity in data set [2], the CC50, lay at 4.67 µM.

Turning to `C[C@@]12CC3CC(C(=O)NC4CCNCC4)(C1)C[C@](c1ccccc1)(C3)C2` [Example C1], the 50% cytotoxic concentration (CC50) in data set [2] amounted to 16.3 µM. The 50% effective concentration (EC50) was 685 nM in data set [3], 238 nM in data set [4] and 186 nM in data set [5].

Consider `C[C@@]12CC3CC(C(=O)N[C@@H]4CCNC[C@H]4F)(C1)C[C@](c1ccccc1)(C3)C2` [Example C5], for which the EC50 in data set [1] is over 3000 nM; in data set [3], 775 nM; in data set [4] it was 169 nM; in data set [5], 109 nM. For the same compound, in data set [2], the cytotoxic concentration (CC50) was found to be 11.6 µM.

As for `C[C@@]12CC3CC(C(=O)N[C@H]4CCNC[C@@H]4F)(C1)C[C@](c1ccccc1)(C3)C2` [Example C6], the EC50 in data set [1] amounted to 2980 nM; in data set [3] it was 480 nM; in data set [4], 320 nM; in data set [5], 250 nM. The compound also had a CC50 in data set [2] of 12.7 µM.

On to `CC1(C)CN(C(=O)C23CC4C[C@](C)(C2)C[C@@](c2ccccc2)(C4)C3)CCC1N` (stereo partly drawn) [Example C8], for which, in data set [2], it took 12.4 µM to reach half-maximal cytotoxicity (CC50). The EC50 is 550 nM in data set [3], 97 nM in data set [4] and 123 nM in data set [5].

`CC[C@@]12CC3CC(C(=O)N[C@H]4CC[C@H](N)CC4)(C1)C[C@](c1ccccc1)(C3)C2` [Example C16]: the 50% effective concentration (EC50) came out at 2970 nM in data set [1], 940 nM in data set [3], 353 nM in data set [4] and 388 nM in data set [5].

As for `C[C@@]12CC3CC(C(=O)N[C@H]4CN5CCC4CC5)(C1)C[C@](c1ccccc1)(C3)C2` [Example C58], the “fold more potent against Marburgvirus infection compared to the opposite enantiomer” value in data set [1] stood at 16 fold. Also, the half-maximal effective concentration (EC50) was 100 nM in data set [1], 1010 nM in data set [3], 785 nM in data set [4] and 188 nM in data set [5]. Half-maximal cytotoxicity in data set [2] (CC50) was put at 10.1 µM.

(Values after patent US11548893B2 (priority 2017, dated 2023).)
